Laboratory results reported in paper PMC13206458, “A Synergistic Inhibitor Development Strategy Against Human UDP‐Galactose‐4‐Epimerase” (Angewandte Chemie (International Ed. in English), 2026).
Blank lines part the entries; values can stand above or below the molecule they belong to.

How the values were obtained:
GalE [1] = biological target: T1, GalE (Homo sapiens, UniProt Q14376); assay: Covalent fragment site identification by tryptic digest LCMS/MS; parameters: His tag (3C-cleavable; concluded from HisTrap purification and 3C cleavage) (cleaved yes); made in house; host or cells: Sf21 insect cells (baculovirus, described before) or E. coli BL21 (DE3)
T1 sequence (Q14376 1-348): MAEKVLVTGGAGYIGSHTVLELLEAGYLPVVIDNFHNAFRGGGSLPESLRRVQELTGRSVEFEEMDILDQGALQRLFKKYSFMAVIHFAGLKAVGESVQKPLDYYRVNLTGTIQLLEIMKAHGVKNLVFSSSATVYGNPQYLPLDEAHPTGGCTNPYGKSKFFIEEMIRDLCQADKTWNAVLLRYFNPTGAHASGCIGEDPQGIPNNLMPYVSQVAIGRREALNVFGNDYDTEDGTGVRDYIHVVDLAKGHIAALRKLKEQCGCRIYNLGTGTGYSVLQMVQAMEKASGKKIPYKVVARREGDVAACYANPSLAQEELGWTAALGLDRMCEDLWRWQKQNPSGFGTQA
Description: • Options: Optimisation of hydrogens, keep tight waters (those that make 3 or more H-bonds), optimise His, Pro, Asn, Gln, and Cys side chains.
• Options: Optimisation of formal and partial charges, protonation states (at pH 7.5) and hydrogen placement.
• Identification of the binding pocket and building of receptor maps around X0213 using the ICM virtual screening function.
• Docking of libraries from SDFiles using the ICM virtual ligand screening function, selecting a thoroughness score of 3.
• All other docking parameters kept as default, and no additional triaging was […]
WBC01 and WBC02 Covalent Fragment Site Identification Mass Spectrometry Recombinant human GalE (10 µM GalE, 25 mM HEPES, 50 mM NaCl) was first incubated with either WBC01 or WBC02 (25, 50, or 100 µM) or matched 1% (V/V) DMSO control for 24 hours at room temperature. Samples were separated by SDS-PAGE gel, stained with colloidal Coomassie InstantBlue (Abcam, Cambridge, UK), bands corresponding to GalE were excised, reduced in 10 mM DTT (in water) for 20 minutes at 55 °C, alkylated with 55 mM iodoacetamide (IAA) in the same buffer at room temperature for 20 minutes, and digested overnight using 100 ng trypsin in 10 mM ammonium bicarbonate at 37 °C (Promega, Wisconsin, USA) before being acidified with to 0.1% Trifluoracetic acid (TFA).
On an Ultimate 3000 nanoRSLC HPLC (Thermo Scientific, Massachusetts, USA), 1-10 µL of protein sample was loaded on a 20 mm x 75 µm Pepmap C18 trap column (Thermo Scientific) prior to elution via a 50 cm x 75 µm EasySpray C18 column into a Lumos Tribrid Orbitrap mass spectrometer (Thermo Scientific). A 45 minute gradient of 6% - 40% B was used followed by washing and re-equilibration (A= 2% ACN, 5% DMSO, 0.1% formic acid; B= 80% ACN, 5% DMSO, 0.1% formic acid). […]
bottom plate from a 10 mM source in DMSO. […] The plate was sealed, centrifuged (1 min, 1000 rpm), incubated at 20 °C for 6 h, and 15 µL aliquots were subsequently removed and analyzed by intact protein LC-MS to confirm modification. […]

GalE [2] = biological target: T1, GalE; assay: Covalent fragment kinetics assay by intact-protein LCMS; format: binding; parameters: His tag (3C-cleavable; concluded from HisTrap purification and 3C cleavage) (cleaved yes); made in house; host or cells: Sf21 insect cells (baculovirus, described before) or E. coli BL21 (DE3)
GalE [3] = biological target: T1, GalE; assay: Intact-protein LCMS covalent modification; format: binding; parameters: His tag (3C-cleavable; concluded from HisTrap purification and 3C cleavage) (cleaved yes); made in house; host or cells: Sf21 insect cells (baculovirus, described before) or E. coli BL21 (DE3); settings: 0.5 µM GalE, 100 µM compound, 24 h incubation, one experiment
Description: To advance GalE inhibitors towards a suitable probe, we next evaluated available crystal structures to identify nearby nucleophilic residues for developing covalent inhibitors (Figure 3A). Three residues close to the ligand binding pocket were identified as potential modification points for commonly employed covalent warheads, Tyr211, Tyr230 and Lys295 (Figure 3B). We screened a library of 347 sulfonyl fluoride‐containing fragments, reported to target Tyr/Lys residues (Figure 3C). Screening was performed by incubating fragments at 100 µM with 0.5 µM purified GalE for 24 h. Protein modification was then determined by intact‐protein LCMS. In this experiment, we deliberately omitted the addition of the NAD cofactor to keep the experimental conditions simple and potentially allow for the sampling of a larger conformational ensemble in GalE. […]
Buffer AGX1_B over 17 min.
A 5 µL sample was injected […]
The flow rate and temperature were set to 0.5 mL/min and 70 °C, respectively. […] The obtained spectra were analysed and deconvoluted with the MassHunter BioConfirm software (Agilent Technologies, Cheshire, UK). […] The spectra were then exported and analysed using software developed internally at GSK to determine relative % labelling. […]
controls were included. Samples were analysed by intact-LCMS as described above and the relative % protein modification determined. […]

AGX1 [4] = biological target: T2, AGX1 (Homo sapiens, UniProt Q16222); assay: WBC11 alkyne protein labelling assay (CuAAC, streptavidin blot), AGX1 control; format: binding; parameters: made in house; settings: 10 µM WBC11
T2 sequence (Q16222 1-505 isoform Q16222-2, species assumed): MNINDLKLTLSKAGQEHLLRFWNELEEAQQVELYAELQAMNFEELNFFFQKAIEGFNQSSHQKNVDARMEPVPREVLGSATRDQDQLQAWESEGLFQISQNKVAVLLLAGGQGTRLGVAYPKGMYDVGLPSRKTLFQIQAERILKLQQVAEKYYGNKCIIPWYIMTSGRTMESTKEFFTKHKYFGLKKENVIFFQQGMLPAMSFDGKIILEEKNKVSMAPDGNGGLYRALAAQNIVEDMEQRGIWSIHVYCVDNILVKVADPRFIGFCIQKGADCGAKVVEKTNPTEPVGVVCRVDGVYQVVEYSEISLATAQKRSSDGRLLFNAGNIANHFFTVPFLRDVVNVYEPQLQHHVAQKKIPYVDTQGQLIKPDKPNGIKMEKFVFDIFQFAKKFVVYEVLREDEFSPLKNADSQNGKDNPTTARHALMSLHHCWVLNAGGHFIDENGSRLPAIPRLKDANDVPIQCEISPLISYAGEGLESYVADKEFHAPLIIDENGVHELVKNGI
Method: dependent analysis (DDA).
methionine were allowed. […] (293.30
WBC11 Alkyne protein labelling assay
minutes at room temperature.
Membrane was blocked for 1 hour with
Each total protein signal value was
normalisation factor for each band.
normalised densitometry score.

GalE [5] = biological target: T1, GalE; assay: WBC11 alkyne protein labelling assay (CuAAC, streptavidin blot), GalE; settings: 95°C for 5 min in sodium dodecyl sulphate loading buffer
Method: We then used WBC11 to trace covalent GalE modification (Figure 5D). […] The traceable nature of WBC11 allowed us to assess the stability of the sulfonyl ester bond to Tyr211.
Recombinant samples of either GalE or AGX1 (0.5 µg enzyme in 25 mM HEPES pH
7.5, 50 mM NaCl, 200 µM NAD) were incubated with either 10 µM WBC11 alkyne, 100
final conditions) for 1 hour at room temperature in 27 µL volume. Samples then
underwent copper-catalyzed azide-alkyne cycloaddition (CuAAC) with 100 µM biotin
picolyl azide (Sigma-Aldrich), 600 µM copper(II) sulfate, 1.2 mM 2-(4-((Bis((1-(tert-
butyl)-1H-1,2,3-triazol-4-yl)methyl)amino)methyl)-1H-1,2,3-triazol-1-yl)acetic acid
(BTTAA), 5 mM sodium ascorbate, and 5 mM amminoguanidine hydrochloride for 30
concentration. Stability of the covalent bond was assessed by incubating the GalE-
WBC11 conjugate for 5 minutes at 95 °C. Samples were run on an 4%-20% SDS
PAGE gel (CriterionTM TGXTM Precast Midi Protein Gel, Bio-Rad) for 70 mins at 160V.
Western blot transfer to 0.2 µm nitrocellulose membrane (Bio-Rad) was done with the
Transblot-Blot Turbo Transfer System (Bio-Rad) at the HIGH MW protocol (10 mins,
2.5 A, up to 25 V). For total protein staining, membrane was incubated with Revert 700
Total Protein stain (LI-COR) for 5 mins. Membrane was blocked for 1 hour with […]
analysed on Image Studio (version 6.0, LI-COR). […]

GalE [6] = biological target: T1, GalE; assay: GalE epimerisation assay (HPAEC, UDP-Gal to UDP-Glc), non-covalent concentration-response
Method: The GalE enzyme assay uses high‐performance anion exchange chromatography (HPAEC) to determine the conversion of UDP‐Gal to UDP‐Glc (Figure S3A) [28].
For in vitro epimerisation, 20 µL reactions were performed in 25 mM HEPES, pH 7.5,
50 mM NaCl, 200 µM NAD with 100 µM UDP-Gal and 5 nM GalE. Reactions were run
minute. Samples were cooled to 4 °C and analysed by high performance liquid
chromatography (HPLC) using an ArcPremier Waters instrument with a Dionex
CarboPac PA1 IC (2mm x 150 mM) column (Waters, Wilmslow, UK). Injection volume
was 5 µL. Eluent A was 1 M NaOAc/1 mM NaOH (Sigma-Aldrich, St. Louis, USA).
The % conversion for each assay was determined by
the relative difference in peak area between UDP-Gal and UDP-Glc peaks. Kinetics
factors (KM and kcat) were determined by non-linear curve fitting using Graphpad Prism
9.0 GraphPad Software. Calculations used a modified version of the Michaelis-Menten
𝜈(𝐺𝐴𝐿𝐸) = [𝐺𝐴𝐿𝐸]! ∙ 𝑘#$! ∙[𝑈𝐷𝑃 − 𝐺𝑎𝑙]
Equation 1: Michaelis-Menten Equation as used in GraphPad.
Where 𝜈 is the initial rate in µM/s.
𝐾%is the Michaelis-Menten constant in µM.
[𝐺𝐴𝐿𝐸]! is the concentration of GalE in µM in the assay.
𝑘#$!is the turnover number in s-1.
[𝑈𝐷𝑃 − 𝐺𝑎𝑙] is the concentration of UDP-Gal at the start of the reaction in µM.
Non-Covalent Compound Concentration-Response Assay […]
only-controls and activity assessed by epimerisation assay.

GalE [7] = biological target: T1, GalE; assay: Differential scanning fluorimetry (DSF) thermal shift assay; format: binding; parameters: His tag (3C-cleavable; concluded from HisTrap purification and 3C cleavage) (cleaved yes); made in house; host or cells: Sf21 insect cells (baculovirus, described before) or E. coli BL21 (DE3); settings: relative to DMSO controls, three technical replicates
GalE [8] = biological target: T1, GalE; assay: Isothermal titration calorimetry (ITC); format: binding; parameters: His tag (3C-cleavable; concluded from HisTrap purification and 3C cleavage) (cleaved yes); made in house; host or cells: Sf21 insect cells (baculovirus, described before) or E. coli BL21 (DE3); settings: 25 °C, one experiment, approximate/estimated
[9] = Hepatocyte stability assay; format: in vitro ADME; settings: hepatocytes, preliminary DMPK
AGX1 [10] = biological target: T2, AGX1; assay: AGX1 inhibition assay; settings: 400 µM WBX09, multiple enzyme concentrations
Method: Recombinant AGX1 was expressed before.[14] Commercial N-Acetyl-D-glucosamine 1-
phosphate disodium salt (GlcNAc-1-P, Sigma Aldrich) was used as a substrate to
absorbance-based assay. Reactions were carried out using 0.5 mM GlcNAc-1-P, 1
either 5 nM, 10 nM or 20 nM AGX1 in a total volume of 20 µL reaction buffer (5 mM
Reactions were stopped by the addit ion of an equal volume of ice-cold acetonitrile,
followed by centrifugation at 16200 g, 4 °C for 30 min. The supernatant of each
reaction was analysed by injecting 9 µL into Acquity H -Class PLUS QDa UPLC -MS
(Waters, Milford, USA) equipped with an ACQUITY UPLC® Glycan BEH Amide
column (130 Å, 1.7 μ m, 2.1 x 100 mm, Waters). Samples were run a t a flow rate of
0.35 mL/min, column temperature at 50 °C and sample manager (sample tray) at 10
°C using Buffer AGX1_ A (10 mM ammonium formate at pH 4.5); Buffer AGX1_ B (10
Product formation was monitored by absorption at 260
nm and further confirmed by mass detection in negative mode. Turnover (%) was
determined by integration of the product’s UV peaks and plotting it against a standard
curve of 0-2.5 mM UDP-GlcNAc (Sigma- Aldrich) produced by serial dilution in final

MGAT2 = biological target: T3, MGAT2 (Homo sapiens, UniProt Q10469); assay: MGAT2 inhibition assay; settings: 400 µM WBX09, multiple enzyme concentrations
T3 sequence (Q10469 1-447): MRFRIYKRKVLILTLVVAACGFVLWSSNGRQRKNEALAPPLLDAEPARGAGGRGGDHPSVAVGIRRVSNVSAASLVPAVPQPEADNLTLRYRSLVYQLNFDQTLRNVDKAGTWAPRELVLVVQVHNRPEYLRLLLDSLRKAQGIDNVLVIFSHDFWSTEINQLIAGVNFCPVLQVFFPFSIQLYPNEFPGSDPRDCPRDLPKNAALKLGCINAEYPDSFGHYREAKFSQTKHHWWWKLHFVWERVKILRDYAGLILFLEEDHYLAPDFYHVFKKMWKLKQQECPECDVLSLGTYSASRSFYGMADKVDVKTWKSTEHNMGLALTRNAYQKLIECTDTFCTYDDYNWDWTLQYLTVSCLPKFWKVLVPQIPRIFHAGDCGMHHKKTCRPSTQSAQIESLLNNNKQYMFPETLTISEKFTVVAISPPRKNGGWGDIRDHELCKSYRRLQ
Method: MGAT2 was recombinantly expressed before.[13] Reaction mixtures were prepared by
an equivalent volume of DMSO, in a total of 10 μL reaction buffer (50 mM Tris pH 6.8,
with 5 mM MnCl2, 0.1% BSA and 0.1% Triton-X100). Reactions were carried out at
centrifuged at for 30 min at 14,000 g at 4°C to precipitate proteins. Of each sample, 9
µL of the supernatant was injected onto an Acquity H-Class PLUS QDa UPLC-MS
(Waters) equipped with an ACQUITY UPLC® Glycan BEH Amide column (130 Å, 1.7
μm, 2.1 x 100 mm, Waters). Samples were run at flow rate of 0.35 mL/min using Buffer
MGAT2_A (10 mM Ammonium formate at pH 4.5); Buffer MGAT2_B (10 mM
The turnover of the procainamide acceptor glycan into the
of the acceptor substrate and the product glycan.

[11] = GalE incubated with 100, 50 or 25 µM compound, tryptic digest MS

Compound: O=S(=O)(F)c1cccc(-c2cc(O)c3ccccc3n2)c1 [WBC01]
residue modified (GalE [1]; [11]): Tyr211

Compound: O=C(NCc1ccc(Cl)c(Cl)c1)c1cccc(S(=O)(=O)F)c1 [WBC02]
residue modified (GalE [1]; [11]): Tyr211

Compound: Cc1cc(NC(=O)NCc2cccc(S(=O)(=O)F)c2)no1 [WBC03]
kinact/KI (GalE [2]): 11.7 M⁻¹ s⁻¹
protein modification % (GalE [3]): > 95%
residue modified (GalE [1]; 200-fold excess of compound, tryptic digest LCMS/MS): only Tyr211

Compound: C#Cc1cc(CNC(=O)Nc2cc(C3CCC3)on2)cc(S(=O)(=O)F)c1 [WBC11]
biotin tagging of AGX1 control protein (AGX1 [4]): band of lower intensity
intensity of GalE-WBC11 adduct after heating (stability of covalent bond) (GalE [5]): did not change

IC50 (GalE [6]): 115 µM
ΔTm (GalE [7]): 3.1 °C
Kd (GalE [8]): 9 ± 6 µM
Compound: Cc1cc(NC(=O)NCCC(=O)Nc2ccncc2)no1 [WBX04]

half-life [9]: 16.4 min
hepatocyte CLint ([9]; read-out: intrinsic clearance): 42.4 µL/min/1e6 cells
effect on AGX1 activity (AGX1 [10]): No inhibition
effect on MGAT2 activity (MGAT2): No inhibition
Compound: O=C(CCNC(=O)Nc1cc(C2CCC2)on1)Nc1ccncc1 [WBX09]

Kd (GalE [8]): ~468 µM
Compound: CCNC(=O)Nc1cc(C)on1 [X0213]
